Results as given in ChEMBL document CHEMBL1201862, “PubChem BioAssay data set” (2004).
The source made the active and inactive calls.

Key:
Troponin, cardiac muscle = Troponin, cardiac muscle (Homo sapiens, UniProt P19429+P45379+P63316); test: Fluorescence-based biochemical high throughput dose response assay for activators of the calcium sensitivity of cardiac Regulated Thin Filaments (RTF). [Related pubchem assays (depositor defined):AID493008, AID493018, AID504382, AID504383]; assay type: protein-complex assay
[1] = target: Voltage-gated inwardly rectifying potassium channel KCNH2 (Homo sapiens, UniProt Q12809); settings: Potency;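 also: confirmatory quantitative high-throughput screen measuring inhibition of hERG channel activity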
[2] = target: T1, Tyrosine-protein phosphatase non-receptor type 7 (Homo sapiens, UniProt P35236); assay type: functional
T1 sequence (P35236 whole entry): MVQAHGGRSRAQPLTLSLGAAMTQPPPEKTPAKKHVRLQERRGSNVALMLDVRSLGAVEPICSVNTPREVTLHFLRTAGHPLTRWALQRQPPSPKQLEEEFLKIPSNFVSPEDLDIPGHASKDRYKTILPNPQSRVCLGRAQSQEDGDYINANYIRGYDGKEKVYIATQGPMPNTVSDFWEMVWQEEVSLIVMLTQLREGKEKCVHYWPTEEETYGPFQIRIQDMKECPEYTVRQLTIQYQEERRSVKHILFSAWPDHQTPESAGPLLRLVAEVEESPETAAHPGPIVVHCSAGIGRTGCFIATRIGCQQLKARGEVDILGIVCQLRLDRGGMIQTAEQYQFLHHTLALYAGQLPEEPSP

[3] = target: T2, Tyrosine-protein phosphatase non-receptor type 22 (Homo sapiens, UniProt Q9Y2R2); assay type: functional
T2 sequence (Q9Y2R2 whole entry): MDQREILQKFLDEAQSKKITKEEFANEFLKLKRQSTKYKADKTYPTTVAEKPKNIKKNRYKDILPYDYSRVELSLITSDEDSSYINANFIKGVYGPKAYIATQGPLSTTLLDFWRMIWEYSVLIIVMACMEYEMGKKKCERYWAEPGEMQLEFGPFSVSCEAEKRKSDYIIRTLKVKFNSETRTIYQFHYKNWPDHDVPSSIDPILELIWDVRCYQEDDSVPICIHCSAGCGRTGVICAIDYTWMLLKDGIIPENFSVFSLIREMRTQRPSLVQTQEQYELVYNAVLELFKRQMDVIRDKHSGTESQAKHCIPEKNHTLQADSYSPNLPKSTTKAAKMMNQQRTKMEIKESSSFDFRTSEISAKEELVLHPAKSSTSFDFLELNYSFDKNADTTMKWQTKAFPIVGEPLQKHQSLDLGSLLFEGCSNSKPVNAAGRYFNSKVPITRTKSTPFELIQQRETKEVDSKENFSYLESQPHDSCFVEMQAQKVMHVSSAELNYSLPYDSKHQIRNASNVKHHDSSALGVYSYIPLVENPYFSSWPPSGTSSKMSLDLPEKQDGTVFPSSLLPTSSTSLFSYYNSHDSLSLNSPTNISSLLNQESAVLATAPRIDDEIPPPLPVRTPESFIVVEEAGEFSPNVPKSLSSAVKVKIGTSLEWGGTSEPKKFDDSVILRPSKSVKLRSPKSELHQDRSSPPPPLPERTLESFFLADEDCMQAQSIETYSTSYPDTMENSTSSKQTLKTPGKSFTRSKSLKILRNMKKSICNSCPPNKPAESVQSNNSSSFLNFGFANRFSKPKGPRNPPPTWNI

[4] = target: T2, Tyrosine-protein phosphatase non-receptor type 22; assay type: functional; remark: listed apart in the source
[5] = target: T1, Tyrosine-protein phosphatase non-receptor type 7; test: HePTP (PTPN7) phosphatase inhibitor potency, SAR follow-up, biochemical, set 2 (AID 449736); assay type: functional
Trypsin = Trypsin (Sus scrofa, UniProt P00761); test: porcine trypsin inhibitors, dose response, selectivity assay for Rce1 protease inhibitor project, biochemical, quenched peptide fluorescence, cherry-pick (AID 488789)
[6] = target: T3, Mannose-6-phosphate isomerase (Homo sapiens, UniProt P34949); test: PMI enzyme inhibitors, confirmation, biochemical, fluorescence intensity (AID 1535)
T3 sequence (P34949 whole entry): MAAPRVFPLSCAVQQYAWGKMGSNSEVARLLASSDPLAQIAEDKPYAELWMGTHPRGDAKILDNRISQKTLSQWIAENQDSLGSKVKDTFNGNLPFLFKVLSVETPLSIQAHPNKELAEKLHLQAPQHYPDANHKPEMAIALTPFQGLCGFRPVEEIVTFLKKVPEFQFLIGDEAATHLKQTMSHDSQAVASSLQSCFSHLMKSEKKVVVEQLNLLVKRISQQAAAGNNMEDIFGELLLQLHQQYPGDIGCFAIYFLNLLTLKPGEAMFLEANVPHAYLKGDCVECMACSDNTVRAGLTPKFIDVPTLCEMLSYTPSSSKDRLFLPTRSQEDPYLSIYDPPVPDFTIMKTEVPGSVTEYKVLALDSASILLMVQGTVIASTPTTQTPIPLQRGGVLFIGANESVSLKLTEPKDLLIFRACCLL

Phosphomannomutase 2 = Phosphomannomutase 2 (Homo sapiens, UniProt O15305); test: Counter screen SAR assay for PMM2 inhibitors via a fluorescence intensity assay. [Related pubchem assays (depositor defined):AID1545, AID1574]
[7] = target: E3 ubiquitin-protein ligase XIAP (Homo sapiens, UniProt P98170); test: Counter Screen using XIAP-Bir3 for Chemical Antagonists of Bir1/2 domains of IAP-family anti-apoptotic proteins. [Related pubchem assays (depositor defined):AID1018, AID1449, AID1514, AID1638, AID1749, AID1750, AID488957, AID488963]
[8] = target: Eukaryotic translation initiation factor 4H (Homo sapiens, UniProt Q15056); test: human eIF4H binding inhibitors, primary screen, translation initiation inhibitor project, biochemical, uHTS, fluorescence polarization (AID 2012)
[9] = system: Streptococcus sp. 'group A'; test: growth inhibition of control SK(-) GAS strain, dose response, counter-screen for streptokinase expression inhibitor project, luminescence, kanamycin, BacTiterGlo, confirmation (AID 1900); assay type: functional, organism-based
Streptokinase A = target: T4, Streptokinase A (Streptococcus pyogenes serotype M1, UniProt P10520); test: S. pyogenes streptokinase expression inhibitors, potency, dose response, plasminogen activation absorbance, OD405 (AID 1914); assay type: functional, Streptococcus pyogenes M1 GAS;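 also: secreted streptokinase activity via plasminogen activation per viability signal from cell pellet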
T4 sequence (P10520 whole entry): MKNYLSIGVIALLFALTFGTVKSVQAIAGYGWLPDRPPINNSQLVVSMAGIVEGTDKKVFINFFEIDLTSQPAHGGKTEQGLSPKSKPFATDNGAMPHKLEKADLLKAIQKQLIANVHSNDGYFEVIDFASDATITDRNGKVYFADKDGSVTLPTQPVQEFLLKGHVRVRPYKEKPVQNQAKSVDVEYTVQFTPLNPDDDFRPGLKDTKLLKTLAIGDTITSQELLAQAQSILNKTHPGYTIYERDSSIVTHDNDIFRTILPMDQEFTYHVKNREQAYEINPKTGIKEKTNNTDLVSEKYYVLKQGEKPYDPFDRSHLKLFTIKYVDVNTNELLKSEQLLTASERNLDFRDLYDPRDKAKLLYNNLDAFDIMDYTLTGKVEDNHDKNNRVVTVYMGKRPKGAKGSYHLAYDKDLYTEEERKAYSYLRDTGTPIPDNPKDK

Streptococcus = test: Group A Streptococcus viability loss, dose response, counter-screen for streptokinase expression inhibitor project, luminescence, BacTiterGlo (AID 1915); assay type: functional, organism-based;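 also: potency for reduction of bacterial viability or growth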
[10] = target: Polyadenylate-binding protein 1 (Homo sapiens, UniProt P11940); test: PABP poly(A) RNA binding inhibitors, primary screen, biochemical, fluorescence polarization, uHTS (AID 2014)
[11] = target: T5, Carboxy-terminal domain RNA polymerase II polypeptide A small phosphatase 1 (Homo sapiens, UniProt Q9GZU7); test: inhibitors of CTDSP1, concentration-response testing, biochemical assay, absorbance-based, actives from ultra-high-throughput screening (AID 540297); assay type: functional
T5 sequence (Q9GZU7 whole entry): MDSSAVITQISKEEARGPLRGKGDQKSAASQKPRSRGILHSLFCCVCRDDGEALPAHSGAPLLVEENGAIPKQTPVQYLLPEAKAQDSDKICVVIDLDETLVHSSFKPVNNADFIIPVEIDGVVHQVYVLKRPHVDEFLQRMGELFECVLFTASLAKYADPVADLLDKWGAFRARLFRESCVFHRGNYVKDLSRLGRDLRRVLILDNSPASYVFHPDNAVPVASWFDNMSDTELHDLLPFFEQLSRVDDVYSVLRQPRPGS

Beta-galactosidase = Beta-galactosidase (Escherichia coli, UniProt Q8VNN2); test: beta-galactosidase enzyme inhibitors and activators, dose response, artefact control for CCR6 antagonist project, biochemical, E. coli enzyme, set 3 (AID 504712); assay type: functional
[12] = Fluorescence-based cell-based high throughput dose response assay for inhibitors of the interaction of nucleotide-binding oligomerization domain containing 2 (NOD2) and the receptor-interacting serine-threonine kinase 2 (RIPK2).; assay type: functional; settings: Homo sapiens
[13] = THP-1 cell cytotoxicity, dose response, cytotoxicity control for Vif-APOBEC3G degradation inhibitor project, THP-1 cells (AID 1117359); assay type: functional; settings: Human immunodeficiency virus 1, THP-1
[14] = target: Voltage-dependent T-type calcium channel subunit alpha-1H (Homo sapiens, UniProt O95180); test: Cav3.2 T-type channel inhibitors, cell-based, synthetic library set 1, calcium flux (AID 493022); assay type: functional
Wee1-like protein kinase = Wee1-like protein kinase (Homo sapiens, UniProt P30291); test: G2/M cell cycle arrest in HeLa, late-stage follow-up, mechanism study for Wee1 degradation inhibitor project, FACS, panel member Wee1 Degradation (AID 2088)
[15] = target: G2/mitotic-specific cyclin-B1 (Homo sapiens, UniProt P14635); test: G2/M cell cycle arrest in HeLa, late-stage follow-up, mechanism study for Wee1 degradation inhibitor project, FACS, panel member Cyclin B Degradation (AID 2088)
Jurkat = test: SAR Analysis of small molecule inhibitors of […] specific antigen receptor-induced NF-kB activation in a Jurkat cell line using a luminescence assay - Set 3. [Related pubchem assays (depositor defined):AID435022, AID435025, AID465]; assay type: functional, cell-based; settings: Homo sapiens
HEK293 [16] = test: SAR Analysis of small molecule inhibitors of B-cell specific antigen receptor-induced NF-kB activation in a HEK-293T cell line using a luminescence assay - Set 2. [Related pubchem assays (depositor defined):AID435022, AID435025, AID489021]; assay type: functional, cell-based; settings: Homo sapiens
HEK293 [17] = test: cytotoxicity in HEK293T NF-kB-Luc cells, SAR follow-up, cytotoxicity control for NF-kB activator project, cell-based, resazurin fluorescence (AID 493251); assay type: functional; settings: Homo sapiens
[18] = insulin promoter down-regulators in MIN6 cells, imaging, high-content screening, mouse beta cells (AID 1628); assay type: functional
[19] = cytotoxicity in MIN6 insulinoma cells, dose response, cytotoxicity control, cell-based, mouse insulinoma (AID 2122); assay type: functional;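 also: confirmatory high-throughput counterscreen run to flag cytotoxic compounds; mouse MIN-6 beta cells carrying an insulin promoter eGFP reporter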
[20] = target: Glyceraldehyde-3-phosphate dehydrogenase (Homo sapiens, UniProt P04406)
[21] = target: Alkaline phosphatase, placental type (Homo sapiens, UniProt P05187); test: PLAP enzyme inhibitors, confirmation, biochemical, luminescence (AID 1512); assay type: functional

Chain of Voltage-dependent T-type calcium channel subunit alpha-1H (O95180 whole entry): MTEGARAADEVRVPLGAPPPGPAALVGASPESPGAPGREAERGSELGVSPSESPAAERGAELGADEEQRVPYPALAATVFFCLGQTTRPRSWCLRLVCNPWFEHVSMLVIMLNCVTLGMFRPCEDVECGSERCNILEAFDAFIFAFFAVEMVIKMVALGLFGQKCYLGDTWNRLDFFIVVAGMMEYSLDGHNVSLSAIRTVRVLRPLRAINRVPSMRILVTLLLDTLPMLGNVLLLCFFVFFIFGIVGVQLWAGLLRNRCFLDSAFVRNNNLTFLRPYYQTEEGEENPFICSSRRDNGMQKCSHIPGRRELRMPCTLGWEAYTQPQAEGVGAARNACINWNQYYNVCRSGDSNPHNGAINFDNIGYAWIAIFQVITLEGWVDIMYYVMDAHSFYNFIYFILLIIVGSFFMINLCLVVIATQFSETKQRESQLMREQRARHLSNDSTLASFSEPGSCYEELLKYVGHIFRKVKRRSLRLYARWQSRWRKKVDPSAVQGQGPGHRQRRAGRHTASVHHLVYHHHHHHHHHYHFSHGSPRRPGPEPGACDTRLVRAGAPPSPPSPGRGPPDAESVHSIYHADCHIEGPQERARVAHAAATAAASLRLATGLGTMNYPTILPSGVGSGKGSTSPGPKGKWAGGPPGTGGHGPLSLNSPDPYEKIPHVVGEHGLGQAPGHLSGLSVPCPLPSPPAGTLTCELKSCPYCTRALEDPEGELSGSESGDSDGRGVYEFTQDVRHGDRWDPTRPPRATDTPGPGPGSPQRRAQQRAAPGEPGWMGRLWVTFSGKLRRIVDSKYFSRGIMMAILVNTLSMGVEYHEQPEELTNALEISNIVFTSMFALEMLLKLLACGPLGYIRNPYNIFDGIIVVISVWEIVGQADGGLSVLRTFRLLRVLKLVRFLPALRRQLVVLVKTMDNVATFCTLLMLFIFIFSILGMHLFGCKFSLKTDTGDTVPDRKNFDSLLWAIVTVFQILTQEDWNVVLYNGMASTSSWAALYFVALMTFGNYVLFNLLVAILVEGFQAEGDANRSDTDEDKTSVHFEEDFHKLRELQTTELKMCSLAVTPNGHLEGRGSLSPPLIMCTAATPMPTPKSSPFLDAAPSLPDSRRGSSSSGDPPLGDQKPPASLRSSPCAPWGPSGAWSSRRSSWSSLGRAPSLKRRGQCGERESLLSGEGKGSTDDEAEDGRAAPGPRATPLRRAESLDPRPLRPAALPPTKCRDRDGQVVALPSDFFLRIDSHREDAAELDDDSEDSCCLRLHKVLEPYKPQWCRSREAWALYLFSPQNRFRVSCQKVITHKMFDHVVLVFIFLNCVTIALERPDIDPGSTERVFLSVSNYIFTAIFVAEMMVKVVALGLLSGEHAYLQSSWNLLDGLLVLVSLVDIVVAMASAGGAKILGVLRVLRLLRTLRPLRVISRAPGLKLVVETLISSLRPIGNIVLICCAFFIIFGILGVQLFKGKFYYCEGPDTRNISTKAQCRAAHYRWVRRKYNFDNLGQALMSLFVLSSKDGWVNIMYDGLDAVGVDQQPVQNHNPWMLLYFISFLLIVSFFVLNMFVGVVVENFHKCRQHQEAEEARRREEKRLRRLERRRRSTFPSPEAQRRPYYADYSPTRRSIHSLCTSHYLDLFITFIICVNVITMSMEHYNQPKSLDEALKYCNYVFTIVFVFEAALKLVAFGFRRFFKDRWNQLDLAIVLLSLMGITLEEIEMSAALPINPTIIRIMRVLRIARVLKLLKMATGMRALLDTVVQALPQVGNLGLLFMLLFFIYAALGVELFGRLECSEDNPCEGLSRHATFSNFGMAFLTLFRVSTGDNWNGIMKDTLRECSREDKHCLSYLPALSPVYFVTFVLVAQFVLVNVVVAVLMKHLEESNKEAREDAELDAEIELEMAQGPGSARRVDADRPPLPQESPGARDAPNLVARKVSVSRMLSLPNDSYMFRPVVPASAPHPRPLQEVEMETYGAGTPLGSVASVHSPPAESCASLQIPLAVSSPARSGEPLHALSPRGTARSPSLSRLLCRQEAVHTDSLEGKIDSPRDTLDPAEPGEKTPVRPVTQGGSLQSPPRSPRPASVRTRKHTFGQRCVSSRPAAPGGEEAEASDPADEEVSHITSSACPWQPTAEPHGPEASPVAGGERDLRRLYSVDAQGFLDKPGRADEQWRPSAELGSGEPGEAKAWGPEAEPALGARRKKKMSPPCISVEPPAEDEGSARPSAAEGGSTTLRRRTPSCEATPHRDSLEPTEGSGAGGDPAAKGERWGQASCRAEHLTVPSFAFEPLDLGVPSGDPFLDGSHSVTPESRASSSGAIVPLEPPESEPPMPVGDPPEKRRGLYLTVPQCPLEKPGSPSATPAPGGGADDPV
Chain of Wee1-like protein kinase (P30291 whole entry): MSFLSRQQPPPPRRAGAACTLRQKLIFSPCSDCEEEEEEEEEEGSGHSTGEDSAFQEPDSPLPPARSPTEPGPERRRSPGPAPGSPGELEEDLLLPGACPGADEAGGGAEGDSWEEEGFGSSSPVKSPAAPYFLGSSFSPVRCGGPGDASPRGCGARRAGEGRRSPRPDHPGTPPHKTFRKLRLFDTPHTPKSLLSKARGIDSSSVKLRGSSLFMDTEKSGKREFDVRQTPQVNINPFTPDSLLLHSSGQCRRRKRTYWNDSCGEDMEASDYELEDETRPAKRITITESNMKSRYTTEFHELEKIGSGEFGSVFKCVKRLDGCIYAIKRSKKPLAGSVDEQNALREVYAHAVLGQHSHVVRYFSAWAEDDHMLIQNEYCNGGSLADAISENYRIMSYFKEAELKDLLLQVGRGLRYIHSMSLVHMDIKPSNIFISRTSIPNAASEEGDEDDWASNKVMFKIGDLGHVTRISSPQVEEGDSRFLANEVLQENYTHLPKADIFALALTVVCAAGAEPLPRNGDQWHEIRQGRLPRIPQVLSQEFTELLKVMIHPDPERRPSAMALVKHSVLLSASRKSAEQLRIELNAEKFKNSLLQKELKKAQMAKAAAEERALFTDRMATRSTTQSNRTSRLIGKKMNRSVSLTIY
Chain of G2/mitotic-specific cyclin-B1 (P14635 whole entry): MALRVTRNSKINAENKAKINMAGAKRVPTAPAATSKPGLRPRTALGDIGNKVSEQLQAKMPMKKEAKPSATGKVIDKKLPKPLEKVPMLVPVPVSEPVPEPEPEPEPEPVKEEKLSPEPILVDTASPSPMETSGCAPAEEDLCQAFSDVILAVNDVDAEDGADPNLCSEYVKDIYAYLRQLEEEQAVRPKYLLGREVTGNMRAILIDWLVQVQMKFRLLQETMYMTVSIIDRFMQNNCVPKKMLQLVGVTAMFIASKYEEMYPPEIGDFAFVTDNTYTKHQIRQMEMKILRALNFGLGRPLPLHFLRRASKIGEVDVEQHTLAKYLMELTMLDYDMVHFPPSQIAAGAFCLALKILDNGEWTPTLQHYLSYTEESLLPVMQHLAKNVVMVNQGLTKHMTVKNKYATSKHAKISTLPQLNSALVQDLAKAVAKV
Chain of Voltage-gated inwardly rectifying potassium channel KCNH2 (Q12809 whole entry): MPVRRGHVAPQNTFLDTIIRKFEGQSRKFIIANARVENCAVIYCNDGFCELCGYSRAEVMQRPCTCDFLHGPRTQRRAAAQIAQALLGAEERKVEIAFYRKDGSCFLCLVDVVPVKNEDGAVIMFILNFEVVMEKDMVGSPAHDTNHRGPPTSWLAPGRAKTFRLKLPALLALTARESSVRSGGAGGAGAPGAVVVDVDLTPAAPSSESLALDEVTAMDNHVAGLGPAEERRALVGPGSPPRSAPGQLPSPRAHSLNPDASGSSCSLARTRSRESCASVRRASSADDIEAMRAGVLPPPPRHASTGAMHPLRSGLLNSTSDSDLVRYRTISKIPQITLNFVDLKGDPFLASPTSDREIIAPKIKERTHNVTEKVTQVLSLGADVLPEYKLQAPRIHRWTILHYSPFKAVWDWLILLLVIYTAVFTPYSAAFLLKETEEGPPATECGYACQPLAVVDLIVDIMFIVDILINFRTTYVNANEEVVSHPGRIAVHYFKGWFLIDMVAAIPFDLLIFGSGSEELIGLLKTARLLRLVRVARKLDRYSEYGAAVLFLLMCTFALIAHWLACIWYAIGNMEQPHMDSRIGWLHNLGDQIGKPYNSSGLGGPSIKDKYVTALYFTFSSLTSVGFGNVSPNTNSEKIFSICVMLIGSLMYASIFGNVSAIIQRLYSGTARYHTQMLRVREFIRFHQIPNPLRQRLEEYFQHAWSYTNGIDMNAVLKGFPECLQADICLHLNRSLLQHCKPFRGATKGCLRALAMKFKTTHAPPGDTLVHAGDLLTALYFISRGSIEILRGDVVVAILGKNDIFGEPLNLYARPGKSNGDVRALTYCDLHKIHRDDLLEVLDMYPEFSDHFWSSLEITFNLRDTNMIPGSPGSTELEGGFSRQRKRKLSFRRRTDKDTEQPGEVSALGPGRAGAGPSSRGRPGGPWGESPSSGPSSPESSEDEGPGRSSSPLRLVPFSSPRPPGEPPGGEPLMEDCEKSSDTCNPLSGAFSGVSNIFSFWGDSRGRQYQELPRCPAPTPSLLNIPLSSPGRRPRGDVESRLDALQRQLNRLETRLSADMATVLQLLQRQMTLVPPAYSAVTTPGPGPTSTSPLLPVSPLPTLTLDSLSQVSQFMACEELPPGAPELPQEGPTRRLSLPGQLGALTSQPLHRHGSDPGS
Chain of Glyceraldehyde-3-phosphate dehydrogenase (P04406 whole entry): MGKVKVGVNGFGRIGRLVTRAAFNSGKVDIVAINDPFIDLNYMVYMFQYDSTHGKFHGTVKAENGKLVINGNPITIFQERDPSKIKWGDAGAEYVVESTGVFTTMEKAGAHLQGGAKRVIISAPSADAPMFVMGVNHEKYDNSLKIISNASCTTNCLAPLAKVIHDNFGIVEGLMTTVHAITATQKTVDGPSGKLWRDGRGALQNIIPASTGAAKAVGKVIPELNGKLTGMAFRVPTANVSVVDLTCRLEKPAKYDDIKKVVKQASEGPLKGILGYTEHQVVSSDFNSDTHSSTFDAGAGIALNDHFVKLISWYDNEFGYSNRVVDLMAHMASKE

CCOC(=O)/C(=C\c1c[nH]c2ccccc12)NC(C)=O
EC50 (Troponin, cardiac muscle): > 71.4 µM (inactive)

CC(C)COC(=O)c1ccccc1C(=O)OCC(C)C
AC50 [1]: 35.5 µM (inconclusive)

O=C(c1cc2cc(F)ccc2[nH]1)N1CCN(C(=O)c2ccco2)CC1
IC50 [2]: > 79.4 µM (inactive) | IC50 [3]: > 79.4 µM (inactive) | IC50 [4]: > 79.4 µM (inactive)

NS(=O)(=O)c1ccc(NC(S)=NC2CCCC2)cc1
IC50 [5]: 28 µM (active)

NS(=O)(=O)c1ccc(NC(=O)/C=C/c2cn(-c3ccccc3)nc2-c2cccc(Cl)c2)cc1
AC50 (Trypsin): 81.4 µM (active)

Sc1n[nH]c(-c2ccccc2Cl)n1
IC50 [6]: > 50 µM (inactive) | IC50 (Phosphomannomutase 2): > 100 µM (inactive)

Cc1ccc(C(=O)COc2ccccc2C(=O)Nc2ccccc2)cc1
IC50 [7]: > 20 µM (inactive)

O=C(Nc1ccc2c(c1)OCCO2)c1cccc(Cl)c1Cl
EC50 (Troponin, cardiac muscle): > 71.4 µM (inactive)

COc1ccc(C(CC(=O)N2CCCC(C)C2)c2c(OC)cc(OC)c3c(-c4ccccc4)cc(=O)oc23)cc1 (stereo unspecified)
IC50 [8]: 8.23 µM (active) | EC50 [9]: 14.5 µM (active) | EC50 (Streptokinase A): 41.2 µM (active) | EC50 (Streptococcus): > 150 µM (not active) | IC50 [10]: 28.3 µM (active) | IC50 [11]: 7.99 µM (active)

CCOC(=O)c1cc([N+](=O)[O-])cc([N+](=O)[O-])c1Sc1[nH]cnc2ncnc1-2
IC50 (Beta-galactosidase): > 66.6 µM (inactive) | IC50 [12]: 3.29 µM (active) | CC50 [13]: 1.6 µM (active)

Cc1ccc(-c2nnc(NC(=O)COc3ccc(F)cc3)o2)cc1C
EC50 [14]: 10 µM (active)

CSc1cccc(NC(=O)CCCOc2cc(=O)n(C)c3ccccc23)c1
EC50 (Wee1-like protein kinase): > 49.7 µM (inactive) | EC50 [15]: > 49.7 µM (inactive)

O=C(COc1ccc(F)cc1Cl)Nc1nnc(-c2ccc3ccccc3c2)o1
EC50 [14]: 3.6 µM (active)

Cc1cc(O)nc(-n2nc(C)cc2NC(=O)c2ccccc2)n1
EC50 (Wee1-like protein kinase): > 16.6 µM (active) | EC50 [15]: > 49.7 µM (inactive)

CCOc1ccc(-c2nc(CSCC(=O)NCc3cccs3)c(C)o2)cc1
IC50 (Jurkat): > 80 µM (inactive) | IC50 (HEK293 [16]): 24.3 µM (inactive) | IC50 (HEK293 [17]): 34.8 µM (inactive)

CCCNC(=O)CCc1nc(-c2ccc(C(C)(C)C)cc2)no1
IC50 (Jurkat): > 80 µM (inactive) | IC50 (HEK293 [16]): 9.19 µM (active) | IC50 (HEK293 [17]): > 80 µM (inactive)

Cn1c(N2CCOCC2)c(/C=N/OC(=O)c2cccnc2Cl)c2ccccc21
IC50 [18]: 3.37 µM (active) | IC50 [19]: 1.4 µM (active)

CC(C)(C)NC(=O)c1cc(-c2ccc(Cl)cc2Cl)n[nH]1
IC50 [20]: > 100 µM (not active) | IC50 [21]: > 100 µM (inactive)
